Assay results from patent US20260061016A1, “Extrait aqueux des parties aériennes d'une plante du genre Aster et ses utilisations” (TAUDERMA, priority 2022, published 2026).
Converted amounts (≈) assume the structure as drawn.

System: S. aureus registered under number DSM799
Experiment: Minimum inhibitory concentration (MIC), solution culture in 96-well plates followed by drop culture on TSB agar
Type: cell-based, Staphylococcus aureus
Experimental: The aim of the test is to compare the efficacy of an extract according to Example 1 or Example 2 and an extract of the Aster genus obtained from the root system (Without the Invention). The aim of the test is to identify the minimum inhibitory concentration (MIC) on a strain of S. aureus registered under number DSM799. The minimum inhibitory concentration (MIC) was determined in vitro using S. aureus solution culture in 96-well plates. The initial concentration of S. aureus was 1.25*10^5 CFU/ml. After 48 h incubation in the presence of a series of dilutions of the extract, a 20 μl drop was taken and placed on a TSB agar plate. The diameter of the “drop culture” is about 1.5 cm. Agar plate cultures were then incubated at 37° C. for 14 hours. The positive control corresponds to the maximum growth of a bacterium, that is, when it is fully confluent, meaning that bacterial colonies stick together and none are visible. Different extracts according to the invention and not according to the invention at different concentrations are thus compared. When no colonies, or separate individual colonies, are visible, then the bacteria have been inhibited by the extract. The extract concentration is then defined as MIC. […] The definition of MIC is as follows: Arbitrary units of bacterial growth were determined on agar culture plates (drop method). […]

MIC (Staphylococcus aureus, 48 h incubation with extract dilutions, drop on TSB agar, 14 h at 37° C.): 50 µg/mL (≈ 155 µM)
Compound: O=C(N[C@H](CO)[C@H](O)c1ccc([N+](=O)[O-])cc1)C(Cl)Cl [Chloramphenicol]
Number of colonies (agar drop culture at the MIC): 0
